According to ChEMBL document CHEMBL1138046, “Discovery of a new boron-containing antifungal agent, 5-fluoro-1,3-dihydro-1-hydroxy-2,1- benzoxaborole (AN2690), for the potential treatment of onychomycosis” (2006):
≈ marks a conversion by molar mass, not a printed value.

Assays:
Trichophyton benhamiae = experiment: Antifungal activity against Trichophyton mentagrophytes; type: functional, Arthroderma benhamiae
Cryptococcus neoformans = experiment: Antifungal activity against Cryptococcus neoformans; type: functional
Candida albicans = experiment: Antifungal activity against Candida albicans; type: functional
Trichophyton rubrum = experiment: Antifungal activity against Trichophyton rubrum; type: functional
Aspergillus fumigatus = experiment: Antifungal activity against Aspergillus fumigatus; type: functional

Structure (SMILES)	MIC (Trichophyton benhamiae) [µg/mL]	MIC (Cryptococcus neoformans) [µg/mL]	MIC (Candida albicans) [µg/mL]	MIC (Trichophyton rubrum) [µg/mL]	MIC (Aspergillus fumigatus) [µg/mL]
CC1OB(O)c2ccc(F)cc21 (stereo not given)	16 (≈ 96.4 µM)	32 (≈ 193 µM)	16 (≈ 96.4 µM)	32 (≈ 193 µM)	16 (≈ 96.4 µM)
Fc1cccc(B2OCc3cc(F)ccc32)c1	2 (≈ 8.69 µM)	1 (≈ 4.35 µM)	0.5 (≈ 2.17 µM)	1 (≈ 4.35 µM)	1 (≈ 4.35 µM)
Cc1ccc2c(c1)COB2O	4 (≈ 27 µM)	8 (≈ 54.1 µM)	2 (≈ 13.5 µM)	8 (≈ 54.1 µM)	2 (≈ 13.5 µM)
OB1OCc2ccc3ccccc3c21	2 (≈ 10.9 µM)	32 (≈ 174 µM)	32 (≈ 174 µM)	4 (≈ 21.7 µM)	32 (≈ 174 µM)
Fc1ccc(B2OCc3cc(F)ccc32)cc1	4 (≈ 17.4 µM)	1 (≈ 4.35 µM)	1 (≈ 4.35 µM)	4 (≈ 17.4 µM)	2 (≈ 8.69 µM)
C=CB1OCc2cc(F)ccc21	2 (≈ 12.3 µM)	4 (≈ 24.7 µM)	1 (≈ 6.17 µM)	4 (≈ 24.7 µM)	2 (≈ 12.3 µM)
OB1OCc2cc(F)c(F)cc21	4 (≈ 23.5 µM)	2 (≈ 11.8 µM)	4 (≈ 23.5 µM)	4 (≈ 23.5 µM)	2 (≈ 11.8 µM)
Cc1cc(C2CCCCC2)n(O)c(=O)c1 [CICLOPIROX]	0.5 (≈ 2.41 µM)	0.5 (≈ 2.41 µM)	0.5 (≈ 2.41 µM)	0.5 (≈ 2.41 µM)	1 (≈ 4.82 µM)
Fc1ccc2c(c1)COB2c1ccccc1	2 (≈ 9.43 µM)	2 (≈ 9.43 µM)	0.5 (≈ 2.36 µM)	1 (≈ 4.72 µM)	2 (≈ 9.43 µM)
Clc1cccc(B2OCc3ccccc32)c1	8 (≈ 35 µM)	4 (≈ 17.5 µM)	8 (≈ 35 µM)	16 (≈ 70 µM)	8 (≈ 35 µM)
OB1OCc2cc(F)ccc21 [TAVABOROLE]	1 (≈ 6.58 µM)	0.25 (≈ 1.65 µM)	0.5 (≈ 3.29 µM)	1 (≈ 6.58 µM)	0.25 (≈ 1.65 µM)
OB1OCc2c(F)cccc21	16 (≈ 105 µM)	32 (≈ 211 µM)	64 (≈ 421 µM)	16 (≈ 105 µM)	32 (≈ 211 µM)
OB1OCCc2cc(F)ccc21	32 (≈ 193 µM)	> 64	64 (≈ 386 µM)	32 (≈ 193 µM)	32 (≈ 193 µM)
N#Cc1ccc2c(c1)COB2O	16 (≈ 101 µM)	8 (≈ 50.3 µM)	8 (≈ 50.3 µM)	16 (≈ 101 µM)	16 (≈ 101 µM)
Cc1ccc(B2OCc3cc(F)ccc32)cc1	2 (≈ 8.85 µM)	0.5 (≈ 2.21 µM)	0.5 (≈ 2.21 µM)	2 (≈ 8.85 µM)	0.5 (≈ 2.21 µM)
OCc1ccc2c(c1)COB2O	64 (≈ 390 µM)	> 64	> 64	64 (≈ 390 µM)	> 64
OB1OCc2ccc(F)cc21	32 (≈ 211 µM)	32 (≈ 211 µM)	16 (≈ 105 µM)	16 (≈ 105 µM)	8 (≈ 52.7 µM)

Structure (SMILES)	MIC (Trichophyton benhamiae) [µg/mL]	MIC (Cryptococcus neoformans) [µg/mL]	MIC (Candida albicans) [µg/mL]	MIC (Trichophyton rubrum) [µg/mL]	MIC (Aspergillus fumigatus) [µg/mL]
OB1OCc2ccccc21 [BENZOXABOROLE]	4 (≈ 29.9 µM)	1 (≈ 7.47 µM)	2 (≈ 14.9 µM)	8 (≈ 59.7 µM)	2 (≈ 14.9 µM)
Fc1cccc(B2OCc3ccccc32)c1	16 (≈ 75.5 µM)	4 (≈ 18.9 µM)	4 (≈ 18.9 µM)	8 (≈ 37.7 µM)	8 (≈ 37.7 µM)
C(=C\c1ccccc1)/B1OCc2ccccc21	8 (≈ 36.4 µM)	4 (≈ 18.2 µM)	2 (≈ 9.09 µM)	8 (≈ 36.4 µM)	4 (≈ 18.2 µM)
OB1OCc2cc(C(F)(F)F)ccc21	8 (≈ 39.6 µM)	16 (≈ 79.2 µM)	16 (≈ 79.2 µM)	8 (≈ 39.6 µM)	8 (≈ 39.6 µM)
Fc1ccc2c(c1)COB2c1cccc(Cl)c1	8 (≈ 32.5 µM)	0.5 (≈ 2.03 µM)	0.25 (≈ 1.01 µM)	4 (≈ 16.2 µM)	2 (≈ 8.11 µM)
Fc1ccc2c(c1)COB2/C=C/c1ccccc1	2 (≈ 8.4 µM)	0.5 (≈ 2.1 µM)	0.5 (≈ 2.1 µM)	≤ 1	1 (≈ 4.2 µM)
Cc1cscc1B1OCc2cc(F)ccc21	2 (≈ 8.62 µM)	1 (≈ 4.31 µM)	1 (≈ 4.31 µM)	1 (≈ 4.31 µM)	1 (≈ 4.31 µM)
OB1OCc2cccc(F)c21	16 (≈ 105 µM)	32 (≈ 211 µM)	32 (≈ 211 µM)	16 (≈ 105 µM)	4 (≈ 26.3 µM)
Fc1ccc(B2OCc3ccccc32)cc1	4 (≈ 18.9 µM)	2 (≈ 9.43 µM)	4 (≈ 18.9 µM)	8 (≈ 37.7 µM)	2 (≈ 9.43 µM)
Cc1cccc(B2OCc3cc(F)ccc32)c1	4 (≈ 17.7 µM)	0.5 (≈ 2.21 µM)	1 (≈ 4.42 µM)	2 (≈ 8.85 µM)	0.5 (≈ 2.21 µM)
c1ccc(B2OCc3ccccc32)cc1	4 (≈ 20.6 µM)	8 (≈ 41.2 µM)	4 (≈ 20.6 µM)	4 (≈ 20.6 µM)	4 (≈ 20.6 µM)
Fc1ccc2c(c1)COB2c1ccoc1	4 (≈ 19.8 µM)	4 (≈ 19.8 µM)	4 (≈ 19.8 µM)	4 (≈ 19.8 µM)	4 (≈ 19.8 µM)
Fc1ccc2c(c1)COB2c1cccnc1	32 (≈ 150 µM)	16 (≈ 75.1 µM)	4 (≈ 18.8 µM)	16 (≈ 75.1 µM)	16 (≈ 75.1 µM)
Fc1ccc2c(c1)COB2c1ccsc1	4 (≈ 18.3 µM)	1 (≈ 4.59 µM)	1 (≈ 4.59 µM)	1 (≈ 4.59 µM)	1 (≈ 4.59 µM)
c1ccc(B2OCCc3ccccc32)cc1	8 (≈ 38.4 µM)	16 (≈ 76.9 µM)	8 (≈ 38.4 µM)	8 (≈ 38.4 µM)	16 (≈ 76.9 µM)
Fc1ccc2c(c1)CCOB2c1ccccc1	8 (≈ 35.4 µM)	8 (≈ 35.4 µM)	8 (≈ 35.4 µM)	8 (≈ 35.4 µM)	8 (≈ 35.4 µM)
OB1OCc2cc(Cl)ccc21 [AN-2718]	2 (≈ 11.9 µM)	2 (≈ 11.9 µM)	1 (≈ 5.94 µM)	1 (≈ 5.94 µM)	1 (≈ 5.94 µM)
